Laboratory results from US20240417359A1, “PRECURSORS OF PHENOLIC FRAGRANT COMPOUNDS” (GIVAUDAN SA, priority 2021, published 2024).

Assay: Odour description on paper blotter
Settings: 1% solution in EtOH on paper blotter, 24 h

Structure (SMILES)	Odour description
C=CCc1ccc(OCCC=C(C)CCC=C(C)C)c(OC)c1 [Example 61, 4-allyl-1-((4,8-dimethylnona-3,7-dien-1-yl)oxy)-2-methoxybenzene]	spicy
CC=CCC(C)(Cc1ccccc1)Oc1ccc(C=O)cc1OCC (stereo not shown) [Example 21, 3-ethoxy-4-((2-methyl-1-phenylhex-4-en-2-yl)oxy)benzaldehyde]	powdery (vanilla) creamy (milky)
COc1ccc(C(C)=CCCOc2ccc(CCC(C)=O)cc2)cc1 [Example 53, 4-(4-((4-(4-methoxyphenyl)pent-3-en-1-yl)oxy)phenyl)butan-2-one]	sweet powdery, anisic aldehyde, fruity, raspberry ketone
CCC=CCC(Oc1ccc(C=O)cc1OCC)C(=O)OCC (stereo not shown) [Example 40, ethyl 2-(2-ethoxy-4-formylphenoxy)hept-4-enoate]	powdery (vanilla)
C=CCC(CCCCCCCCCC)Oc1ccccc1C(=O)OC (stereo not shown) [Example 25, methyl 2-(tetradec-1-en-4-yloxy)benzoate]	aldehydic, metallic, green, citrus
C=CCC(CCCCCCCCC)Oc1ccc(COC)cc1OCC (stereo not shown) [Example 37, 2-ethoxy-4-(methoxymethyl)-1-(tridec-1-en-4-yloxy)benzene]	citrus, mandarin, green
CC/C=C\C/C=C\CCOc1ccc(CCC(C)=O)cc1 [Example 31, 4-(4-(((3Z,6Z)-nona-3,6-dien-1-yl)oxy)phenyl)butan-2-one]	green, leaf aldehyde, green apple, fruity
CCOc1cc(C=O)ccc1OCCC=C(C)CCc1ccc(OC)cc1 [Example 54, 3-ethoxy-4-((6-(4-methoxyphenyl)-4-methylhex-3-en-1-yl)oxy)benzaldehyde]	powdery, vanilla
C=CCC(Oc1ccc(CCC(C)=O)cc1)C(C)=CCC (stereo not shown) [Example 5, 4-(4-((5-methylocta-1,5-dien-4-yl)oxy)phenyl)butan-2-one]	fruity (powdery, sweet, raspberry)
CCOc1cc(C=O)ccc1OCCC=C(C)c1ccc(OC)cc1 [Example 49, 3-ethoxy-4-((4-(4-methoxyphenyl)pent-3-en-1-yl)oxy)benzaldehyde]	sweet, powdery, vanilla, ice cream, soft anisic, heliotropine, anethiol
C=CCC(C/C=C\CC)Oc1ccc(C=CC)cc1OC (stereo not shown) [Example 13, 2-methoxy-1-(((Z)-nona-1,6-dien-4-yl)oxy)-4-(prop-1-en-1-yl)benzene]	creamy, vanilla
COC(=O)c1ccccc1OCCC=C(C)CCc1ccccc1 [Example 56, methyl 2-((4-methyl-6-phenylhex-3-en-1-yl)oxy)benzoate]	wintergreen, salicylate, slightly powdery, vanilla
C=CCC(Oc1ccc(CCC(C)=O)cc1)c1ccccc1 (stereo not shown) [Example 8, 4-(4-((1-phenylbut-3-en-1-yl)oxy)phenyl)butan-2-one]	fruity (powdery, sweet, raspberry)
CCOc1cc(C=O)ccc1OCCC=C(C)C1CCCC1 [Example 88, 4-((4-cyclopentylpent-3-en-1-yl)oxy)-3-ethoxybenzaldehyde]	powdery, creamy, vanilla
C=CCC(Oc1cc(C)c(C(=O)OC)c(O)c1C)C(C)=CCC (stereo not shown) [Example 7, methyl 2-hydroxy-3,6-dimethyl-4-((5-methylocta-1,5-dien-4-yl)oxy)benzoate]	powdery (evernyl)
CCOc1cc(C=O)ccc1OC(C)C(C)/C=C/C1CC=C(C)C1(C)C (stereo not shown) [Example 63, (E)-3-ethoxy-4-((3-methyl-5-(2,2,3-trimethylcyclopent-3-en-1-yl)pent-4-en-2-yl)oxy)benzaldehyde]	woody, sandalwoody, hay
C=CCC(CCCCCCCCCC)Oc1ccc(C=O)cc1OCC (stereo not shown) [Example 27, 3-ethoxy-4-(tetradec-1-en-4-yloxy)benzaldehyde]	powdery, vanilla, aldehydic, metallic, green, citrus, mandarin
CCOc1cc(C=O)ccc1OCCC=C(C)CCC=C(C)C [Example 60, 4-((4,8-dimethylnona-3,7-dien-1-yl)oxy)-3-ethoxybenzaldehyde]	gourmand (vanilla, rhum, vanilla bean) sweet (vanilla)
C=CCC(CCCCCC)Oc1ccc(CCC(C)=O)cc1 (stereo not shown) [Example 23, 4-(4-(dec-1-en-4-yloxy)phenyl)butan-2-one]	fruity (raspberry, gourmand) sugary
CCCCCCC=CC=CCC(CCCCCC)Oc1ccc(CCC(C)=O)cc1 (stereo not shown) [Example 9, 4-(4-((octadeca-9,11-dien-7-yl)oxy)phenyl)butan-2-one]	powdery fruity raspberry
CCOc1cc(C=O)ccc1OCC/C=C(\C)c1ccccc1 [Example 48, (E)-3-ethoxy-4-((4-phenylpent-3-en-1-yl)oxy)benzaldehyde]	sweet, powdery, vanilla, ice cream
CCOc1cc(C=O)ccc1OCCC=C(C)CCCc1ccccc1 [Example 58, 3-ethoxy-4-((4-methyl-7-phenylhept-3-en-1-yl)oxy)benzaldehyde]	powdery, vanilla, creamy, chocolate
CCOc1cc(C=O)ccc1OCCC=C(C)Cc1ccccc1 [Example 50, 3-ethoxy-4-((4-methyl-5-phenylpent-3-en-1-yl)oxy)benzaldehyde]	powdery, vanilla, ice cream

Structure (SMILES)	Odour description
C=CCC(CCCCCCCCCC)Oc1ccccc1C(=O)CC (stereo not shown) [Example 26, 1-(2-(tetradec-1-en-4-yloxy)phenyl)propan-1-one]	aldehydic, metallic, green, citrus
CC/C=C\C/C=C\CCOc1ccccc1OC [Example 32, 1-methoxy-2-(((3Z,6Z)-nona-3,6-dien-1-yl)oxy)benzene]	green, leaf aldehyde
COC(=O)c1c(C)cc(OCC/C=C(\C)CCC=C(C)C)c(C)c1O [Example 62, methyl (E)-4-((4,8-dimethylnona-3,7-dien-1-yl)oxy)-2-hydroxy-3,6-dimethylbenzoate]	powdery (mossy)
CCCCCCC(C)=CCCOc1ccc(C=O)cc1OCC [Example 89, 3-ethoxy-4-((4-methyldec-3-en-1-yl)oxy)benzaldehyde]	powdery, vanilla, creamy
C=CCC(Oc1ccc(C=CC)cc1OC)C(C)=CCC (stereo not shown) [Example 6, 2-methoxy-1-((5-methylocta-1,5-dien-4-yl)oxy)-4-(prop-1-en-1-yl)benzene]	woody (smokey, cedarwood, pyrogravure)
C=CCC(Oc1ccc(C=O)cc1OCC)c1ccccc1 (stereo not shown) [Example 68, 3-ethoxy-4-((1-phenylbut-3-en-1-yl)oxy)benzaldehyde]	powdery (vanilla), green
C=CCC(CCCCCCCCC)Oc1ccc(C=O)cc1OCC (stereo not shown) [Example 91, 3-ethoxy-4-(tridec-1-en-4-yloxy)benzaldehyde]	powdery, vanilla, aldehydic, fruity, mandarin
CCOc1cc(C=O)ccc1OCC/C=C(\C)CC/C=C(\C)CCC=C(C)C [Example 20, 3-ethoxy-4-(((3E,7E)-4,8,12-trimethyltrideca-3,7,11-trien-1-yl)oxy)benzaldehyde]	vanilla (powdery, creamy, chocolate, gourmand)
CC=CCC(CCCCCC)Oc1ccc(C=O)cc1OCC (stereo not shown) [Example 43, 3-ethoxy-4-(undec-2-en-5-yloxy)benzaldehyde]	powdery, creamy, vanilla
CCCCCCC(CC=C(C)C)Oc1ccc(C=O)cc1OCC (stereo not shown) [Example 4, 3-ethoxy-4-((2-methylundec-2-en-5-yl)oxy)benzaldehyde]	vanilla (powdery, creamy) dry (dough)
C=CCC(CCC=CCC)Oc1ccc(C=O)cc1OCC (stereo not shown) [Example 78, 4-(deca-1,7-dien-4-yloxy)-3-ethoxybenzaldehyde]	powdery, vanilla
CCCCCC(CC=Cc1ccccc1)Oc1ccc(C=O)cc1OCC (stereo not shown) [Example 15, 3-ethoxy-4-((1-phenylnon-1-en-4-yl)oxy)benzaldehyde]	powdery (vanilla)
C=CCC(Oc1ccc(C=O)cc1OCC)C(C)=CCC (stereo not shown) [Example 11, 3-ethoxy-4-((5-methylocta-1,5-dien-4-yl)oxy)benzaldehyde]	powdery (vanilla)
CCOc1cc(C=O)ccc1OC(C)(C)CC=C=C(C)C [Example 16, 4-((2,6-dimethylhepta-4,5-dien-2-yl)oxy)-3-ethoxybenzaldehyde]	powdery (vanilla)
CCOc1cc(C=O)ccc1OCCC=CCCc1ccccc1 [Example 85, 3-ethoxy-4-((6-phenylhex-3-en-1-yl)oxy)benzaldehyde]	powdery, vanilla, creamy, balsamic, cinnamic
CCOc1cc(C=O)ccc1OCCC=C(C)CCc1ccc2c(c1)OCO2 [Example 79, 4-((6-(benzo[d][1,3]dioxol-5-yl)-4-methylhex-3-en-1-yl)oxy)-3-ethoxybenzaldehyde]	sweet powdery, creamy, vanilla, vanitrope
CCCCCCC(CC=CCC(CCCCCC)Oc1ccc(CCC(C)=O)cc1)Oc1ccc(CCC(C)=O)cc1 (stereo not shown) [Example 10, 4,4′-((octadec-9-ene-7,12-diylbis(oxy))bis(4,1-phenylene))bis(butan-2-one)]	powdery fruity raspberry
CCOc1cc(C=O)ccc1OCCC=CCCc1ccc(CC(C)C)cc1 [Example 86, 3-ethoxy-4-((6-(4-isobutylphenyl)hex-3-en-1-yl)oxy)benzaldehyde]	powdery, vanilla, creamy, floral, muguet
CCOc1cc(C)ccc1OCCC=C(C)CCC=C(C)CCC=C(C)C [Example 65, 2-ethoxy-4-methyl-1-((4,8,12-trimethyltrideca-3,7,11-trien-1-yl)oxy)benzene]	phenolic (medicinal, ultravanil, balsamic vanilla bean, cough syrup)
CC/C=C\C/C=C\CCOc1ccc2ccccc2c1 [Example 33, 2-(((3Z,6Z)-nona-3,6-dien-1-yl)oxy)naphthalene]	weak, green, leaf aldehyde
CCOc1cc(C=O)ccc1OCC/C=C(\C)c1ccc2ccccc2c1 [Example 51, (E)-3-ethoxy-4-((4-(naphthalen-2-yl)pent-3-en-1-yl)oxy)benzaldehyde]	powdery, vanilla, ice cream, floral, neroli, orange flower, baby cologne, madeleine, fougassette
C=CCC(CCCCCC)Oc1ccc(C=O)cc1OCC (stereo not shown) [Example 22, 4-(dec-1-en-4-yloxy)-3-ethoxybenzaldehyde]	dry powdery (cedarwood, vanilla)
CCC=CCC(CCCCCC)Oc1ccc(C=O)cc1OCC (stereo not shown) [Example 44, 4-(dodec-3-en-6-yloxy)-3-ethoxybenzaldehyde]	woody, cedarwood, vanilla
